Test results reported in patent US6413764B1, “Human metabotropic glutamate receptors, nucleic acids encoding same and uses thereof” (Merck & Co., Inc., priority 1993, dated 2002).
One block for each compound: values may come before it.

Key:
human mGluR5a receptor [1] = target: T1, human mGluR5a receptor (Homo sapiens, UniProt P41594); assay: Automated fluorescence assay (fluo-3) in transiently transfected HEK 293 cells; type: cell-based; parameters: expressed in transfected cells; host or cells: HEK 293 cells, transient CaPO4 transfection; details: cells transfected with mGluR5a2
T1 sequence (P41594 21-1180 isoform P41594-2 limits assumed): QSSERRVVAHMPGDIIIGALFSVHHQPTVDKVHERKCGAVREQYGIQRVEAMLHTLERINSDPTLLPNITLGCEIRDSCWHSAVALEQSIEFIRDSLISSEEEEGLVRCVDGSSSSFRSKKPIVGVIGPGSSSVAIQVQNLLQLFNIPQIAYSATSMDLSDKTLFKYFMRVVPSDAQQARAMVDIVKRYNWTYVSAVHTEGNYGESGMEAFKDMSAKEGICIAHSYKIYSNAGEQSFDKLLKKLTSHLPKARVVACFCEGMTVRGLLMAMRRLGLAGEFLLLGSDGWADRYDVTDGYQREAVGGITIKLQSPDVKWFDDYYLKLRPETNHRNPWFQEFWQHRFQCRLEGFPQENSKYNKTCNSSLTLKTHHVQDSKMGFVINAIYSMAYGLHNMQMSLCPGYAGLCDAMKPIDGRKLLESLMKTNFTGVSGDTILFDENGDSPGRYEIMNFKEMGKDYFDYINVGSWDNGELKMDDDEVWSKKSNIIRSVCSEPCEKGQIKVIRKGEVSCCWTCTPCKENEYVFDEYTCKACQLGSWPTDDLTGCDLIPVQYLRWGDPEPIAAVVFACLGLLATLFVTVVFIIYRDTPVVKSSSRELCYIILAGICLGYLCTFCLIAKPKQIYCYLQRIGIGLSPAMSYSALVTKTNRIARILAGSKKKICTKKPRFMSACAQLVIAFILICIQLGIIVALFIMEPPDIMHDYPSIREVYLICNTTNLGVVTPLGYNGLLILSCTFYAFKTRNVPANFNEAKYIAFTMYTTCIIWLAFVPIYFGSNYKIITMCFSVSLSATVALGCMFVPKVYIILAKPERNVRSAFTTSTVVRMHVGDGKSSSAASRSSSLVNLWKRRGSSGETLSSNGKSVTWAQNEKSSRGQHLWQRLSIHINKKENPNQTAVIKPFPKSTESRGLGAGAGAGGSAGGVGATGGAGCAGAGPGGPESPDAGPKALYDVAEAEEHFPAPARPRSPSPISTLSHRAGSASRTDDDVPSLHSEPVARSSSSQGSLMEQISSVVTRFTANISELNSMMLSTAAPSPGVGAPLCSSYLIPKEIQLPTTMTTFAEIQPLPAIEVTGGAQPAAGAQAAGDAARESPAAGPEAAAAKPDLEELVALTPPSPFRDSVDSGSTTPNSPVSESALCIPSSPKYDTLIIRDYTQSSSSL
Description: HEK 293 cells were transiently transfected with DNA encoding mGluR5a (constructs mGluR5a2 and mGluR5a3 and construct MMTV-hmGluR5a) receptors. Approximately 2×10^6 HEK cells were transiently transfected with 5-18 μg (or 0.18 μg in some transfections, see Example 3.C.2.) of the indicated plasmid according to standard CaPO4 transfection procedures [see Wigler et al. (1979) Proc. Natl. Acad. Sci. USA 76:1373-1376]. In addition, 0.5-2 μg (or 0.18 μg in some transfections, see Example 3.C.2) of plasmid pCMVβgal (Clontech Laboratories, Palo Alto, Calif.), which contains the Escherichia coli β-galactosidase gene fused to the CMV promoter, were co-transfected as a reporter gene for monitoring the efficiency of transfection. The transfectants were analyzed for β-galactosidase expression by direct staining of the product of a reaction involving β-galactosidase and the X-gal substrate [Jones (1986) EMBO 5:3133-3142]. Transfectants can also be analyzed for β-galactosidase expression by measurement of β-galactosidase activity [Miller (1972) in Experiments in Molecular Genetics, pp.352-355, Cold Spring Harbor Press].
HEK 293 cells that were transiently transfected with 5 μg of MMTV-hmGluR5A were co-transfected with 5 μg of pRShGR (ATCC accession no. 67200) which contains DNA encoding a glucocorticoid receptor operatively linked to the Rous Sarcoma virus (RSV) LTR promoter. Co-expression of glucocorticoid receptors in these cells should insure that induction of expression of the MMTV promoter-mGluR5a DNA occurs upon addition of glucocorticoid (e.g., dexamethasone) to the cells.
Untransfected HEK 293 cells (or HEK 293 cells transiently transfected with pCMV-T7-3) and HEK 293 cells that had been transfected with mGluR5a-encoding DNA were plated in the wells of a 96-well microtiter dish (Nunc Catalog No. 1-6708, distributed by Alameda Industries, Escondido, Calif.) that had been precoated with poly-L-lysine at a density of 2×10^5 cells/well and loaded with fluo-3 by incubation for 2 hours at 20° C. in a medium containing 20 μM fluo-3, 0.2% Pluronic F-127 in HBS (125 mM NaCl, 5 mM KCl, 1.8 mM CaCl2, 0.62 MM MgCl2, 20 mM glucose, 20 mM HEPES, pH 7.4). The cells were then washed with assay buffer (i.e. HBS). The microtiter dish was then placed into a fluorescence plate reader (e.g., Fluoroskan II, Lab Products International, Ltd., Raleigh, N.C.), and the basal fluorescence of each well was measured and recorded before addition of metabotropic receptor-modulating compounds such as quisqualate, glutamate, trans-ACPD (1-amino-cyclopentane-1,3-dicarboxylic acid), 1S,3R-ACPD, AP3 (2-amino-3-phosphonopropionate) AP5 (2-amino-5-phosphonopentanoate), and CNQX (6-cyano-7-nitroquinoxaline-2,3-dione) to the wells. The fluorescence of the wells was monitored repeatedly (75 readings at 0.63-sec intervals) following addition of agonist.

human mGluR5a receptor [2] = target: T1, human mGluR5a receptor; assay: Phosphatidylinositol hydrolysis (IP1) assay in HEK 293 cells transiently transfected with mGluR5a3; type: cell-based; parameters: expressed in transfected cells; host or cells: HEK 293 cells, transient CaPO4 transfection; details: 1 mM AP3
Description: HEK 293 cells that had been transiently transfected with mGluR5a3 were plated in 24-well microtiter plates at a density of 8×10^5 cells/well. After the cells were allowed to settle and adhere to the bottom of the plate for a few hours, 2 μCi of [^3H]-myo-inositol (Amersham catalog # PT6-271, Arlington Heights, Ill.; specific activity=17.7 Ci/mmol) was added to each well and incubated overnight at 37° C. The next day, the cells were examined under a Nikon Diaphot inverted microscope to assess the health of the cells morphologically as well as to determine if the wells contained a confluent layer of cells. Media was then aspirated and the cells were washed twice with 0.5 ml Krebs bicarbonate buffer [117.9 mM NaCl, 4.72 mM KCl, 2.54 mM CaCl2, 1.18 mM MgSO4, 1.19 mM KH2PO4, 25 mM NaHCO3, 11.1 mM dextrose (equilibrated with 95% O2, 5% CO2, pH 7.4)]. The cells were incubated for 45 min. at room temperature. The buffer was then aspirated from each well and the cells were washed and incubated in 0.5 ml/well for 45 min at room temperature. The buffer was aspirated from each well, and the cells were then incubated for 20 min at 37° C. with 450 μl Krebs-bicarbonate buffer containing 10 mM LiCl instead of 10 mM NaCl (to block hydrolysis of IP1 to inositol and inorganic phosphate) and 10 mM unlabeled myo-inositol.
To begin treatment of the cells with metabotropic receptor-modulating compounds, 50 μl of Krebs-bicarbonate buffer (control) or 10× the final concentration of the compound was added to each well and the incubation was continued for 40 min. Incubation was terminated by addition of 1 ml ice-cold methanol to each well.
In order to isolate IP1 from the cells, the cells were removed from the plates by scraping with plastic pipette tips, and the cell suspension was transferred to 12×75 mm glass tubes. The tubes were thoroughly vortexed, and a 150-μl aliquot, i.e., one-tenth of the total volume, of each reaction mixture was transferred to another tube for protein determination. The water-soluble inositol phosphates were separated from the radiolabelled membrane phospholipids by extraction in 1 ml chloroform. The tubes were incubated at room temperature for 30 min before centrifugation at 500×g for 5 min at 4° C. The aqueous (top) layer containing the [^3H]-inositol phosphates was transferred to 10-ml syringes connected to Accell QMA SEP-PAK columns (Millipore; Calif.), which were attached to an Amersham Superseparator apparatus that was modified to allow collection into 20-ml scintillation vials. Water (10 ml) was added to the cartridge to remove [^3H]-inositol precursor, followed by 4 ml 0.02 M triethylammonium hydrogen carbonated buffer (TEAB, Fluka; N.Y.). To separately remove [^3H]-IP1, [^3H]-IP2 and [^3H]-IP3 from the cartridge, 4 ml of 0.1 M TEAB, 4 ml of 0.3 M TEAB and 4 ml of 0.4 M TEAB were sequentially added to the cartridge and the separate eluate fractions were collected in large scintillation vials. Ecolume cocktail (15 ml; ICN; California) was added to each vial for subsequent scintillation counting to determine the amount of each IP in the separate fractions. Protein concentration was determined using the Bio-Rad Protein Micro-Assay (Bio-Rad, Richmond, Calif.).

[3] = tested on: olfactory cyclic nucleotide-gated channel; assay: Single-cell video imaging of [Ca++]i in HEK293 cells transfected with pCMV-OCNA; type: cell-based; details: 1 mM IBMX
Description: The transfectants were also analyzed by single-cell video imaging of internal calcium levels ([Ca^++]i). This method allows analysis of cyclic nucleotide-gated channel activity by measurement of intracellular calcium levels, which change with the amount of calcium influx through the channel, as regulated by cyclic nucleotide activation of the channel. The imaging assay was conducted essentially as described in Example 3.C.1.b., with some modifications. After dye loading, the cells were examined using a Zeiss Axiovert microscope and 100 W mercury lamp, a Dage intensified CCD camera, and Image-1 hardware and software for image processing. The software controlled the alternate excitation of the cells at 350 and 385 nm (typically every 5 seconds) through a 20×1.3 N.A. oil immersion objective. Light emitted at greater than 510 nm was collected by the CCD camera, digitized, and 350 and 385 nm excitation images were background-subtracted before calculating the 350/385 nm intensity ratio.
For quantitative analysis, the average 350/385 ratio value in a 12 by 12 pixel region over each cell was calculated by the software for each ratio image in an experiment and imported into a spreadsheet for further analysis and graphing. […]
In these experiments, the HEK293 cell transfectants were exposed to agents which increase intracellular cAMP levels and monitored for subsequent changes in [Ca^++]i. […]

[4] = tested on: endogenous G-protein-coupled muscarinic acetylcholine receptors; assay: Fluorescence imaging assay (fura-2), response to muscarinic agonist; type: cell-based, human; details: 1 mM; transfectants and untransfected HEK 293 cells
Description: HEK 293 cells that had been transiently transfected with mGluR5a3 and untransfected HEK 293 cells (control) were analyzed by digital video imaging in order to visualize metabotropic receptor-mediated changes in intracellular Ca^++ concentration. Transfectants (4×10^5 cells per 35-mm culture dish with glass-insert bottom) were loaded with fura-2 by exposing the cells to 1 μM fura-2 (acetoxymethyl ester) for 25 min at room temperature in the dark. The cells were then washed three times with DMEM and four times with Ringer's (160 mM NaCl, 5 mM KCl, 2 mM CaCl2, 1 mM MgCl2, 11 mM glucose, 5 mM HEPES, pH 7.3) solution.
The transfectants and untransfected cells were then placed on the stage of an Axiovert 100 TV inverted microscope (Zeiss, Oberkochren, Germany) equipped with a 150 W xenon lamp as the UV light source. […]
The uncalibrated fura-2 ratios were used to generate pseudocolor images with purple corresponding to resting intracellular Ca^++ concentration (˜100 nM) and red to high intracellular Ca^++ concentration (˜1 μM). For quantitative analysis, the average ratio value in a 12-by-12 pixel region over each cell was calculated by the software for each ratio image in an experiment and imported into a spreadsheet for further analysis and graphing.

[5] = target: olfactory cyclic nucleotide-gated channel (Rattus norvegicus, UniProt Q00195); details: 1 mM cAMP; membrane potential ramped from −100 to +100 mV in 2 seconds; one patch
Sequence of olfactory cyclic nucleotide-gated channel (Rattus norvegicus, UniProt Q00195) (Q00195 whole entry): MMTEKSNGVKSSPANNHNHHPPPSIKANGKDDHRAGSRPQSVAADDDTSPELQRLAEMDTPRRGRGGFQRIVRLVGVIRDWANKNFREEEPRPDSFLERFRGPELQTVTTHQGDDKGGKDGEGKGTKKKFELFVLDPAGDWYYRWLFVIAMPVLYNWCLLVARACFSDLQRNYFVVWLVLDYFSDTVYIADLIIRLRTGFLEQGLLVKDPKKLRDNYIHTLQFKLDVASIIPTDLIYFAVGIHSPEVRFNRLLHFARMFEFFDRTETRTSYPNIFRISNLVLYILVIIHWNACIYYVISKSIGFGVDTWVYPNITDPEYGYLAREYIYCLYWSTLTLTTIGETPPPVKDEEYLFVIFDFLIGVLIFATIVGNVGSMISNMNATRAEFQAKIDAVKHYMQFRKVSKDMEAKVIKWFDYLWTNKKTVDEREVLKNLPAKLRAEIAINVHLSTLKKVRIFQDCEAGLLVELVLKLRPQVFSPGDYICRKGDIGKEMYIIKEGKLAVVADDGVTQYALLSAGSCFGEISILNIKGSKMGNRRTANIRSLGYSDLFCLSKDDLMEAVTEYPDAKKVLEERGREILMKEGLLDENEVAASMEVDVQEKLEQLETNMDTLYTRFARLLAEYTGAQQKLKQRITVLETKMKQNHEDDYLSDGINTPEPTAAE
Description: HEK293 cells were grown in monolayers (approximately 2×10^6 cells per 10 cm poly-D-lysine-coated plate) in Dulbecco's modified Eagle's medium (DMEM; Gibco) containing 5% defined supplemented calf serum (Hyclone) including 100 U/ml penicillin and 100 μg/ml streptomycin sulfate. […] Transfection efficiencies, as determined by measuring β-galactosidase activity, were 50-70%.
HEK cells transfected with olfactory cyclic nucleotide-gated channel DNA were incubated 24-48 hours before testing for function. The activity of the channels was first assessed electrophysiologically using inside-out membrane patches pulled from the transfected cells so that the concentration of cAMP reaching the cytoplasmic face could be controlled (see, e.g., Single-Channel Recording, Sakmann and Neher, eds., Plenum Press, N.Y. (1983)). […]

human mGluR5a receptor [6] = target: T1, human mGluR5a receptor; assay: [3H]-glutamate binding to membranes of HEK 293 cells transfected with mGluR5a3; parameters: expressed in transfected cells; host or cells: HEK 293 cells, transient CaPO4 transfection; details: 200 μg of membranes, 100 nM [3H]-glutamate
Description: In order to prepare membranes from HEK 293 cells transfected. with mGluR5a-encoding DNA or pUC19 (negative control), cells were scraped from the tissue culture plates, and the plates rinsed with 5 ml of PBS (phosphate-buffered saline: 137 mM NaCl, 2.7 mM KCl, 10 mM Na2HPO4, 1.7 mM KH2PO4). The cells were centrifuged at low speed in a table-top centrifuge, and the cell pellet was rinsed with PBS. The cell pellet was resuspended in 20 volumes of 50 mM Tris-HCl containing 0.5 mM PMSF, pH 7.6. The cells were homogenized on ice in a Dounce (teflon/glass) homogenizer using 10-20 strokes. The homogenate was centrifuged at 120,000×g for 30 min. at 4° C. The final membrane pellet was resuspended in 50 mM Tris-HCl containing 0.5 mM PMSF, pH 7.6. […] The protein concentration was determined using the method of Bradford [(1976) Anal. Biochem. 72:248).
Specific binding of [^3H]-glutamate to membranes prepared from HEK 293 cells transfected with mGluR5a-encoding DNA or pUC19 was determined essentially as described for measuring binding to rat brain membranes with minor modifications. […] NMDA, AMPA and kainate were excluded from the assay mixture when HEK 293 cell membranes were being analyzed for [^3H]-glutamate binding.
Specific binding of [^3H]-glutamate to membranes prepared from HEK 293 cells transfected with mGluR5a3 or pUC19 was measured using 200 μg of membranes and 100 nM [^3H]-glutamate.

Compound: NC(CP(=O)(O)O)C(=O)O (centres unmarked) [AP3, 2-amino-3-phosphonopropionate]
inhibition of glutamate-, quisqualate- or trans-ACPD-stimulated fluorescence increases (human mGluR5a receptor [1]): Neither of these compounds (AP3, AP5 or CNQX) inhibited | effect on quisqualate-induced increase in IP1 levels (human mGluR5a receptor [2]): not affected

Compound: CC(C)Cn1c(=O)n(C)c(=O)c2[nH]cnc21 [IBMX, 3-isobutyl-1-methylxanthine]
change in [Ca++]i [3]: more significant increase

Compound: N#Cc1cc2c(cc1[N+](=O)[O-])=NC(=O)C(=O)N=2 [CNQX, 6-cyano-7-nitroquinoxaline-2,3-dione]
inhibition of glutamate-, quisqualate- or trans-ACPD-stimulated fluorescence increases (human mGluR5a receptor [1]): Neither of these compounds (AP3, AP5 or CNQX) inhibited

Compound: C[N+](C)(C)CCOC(N)=O.[Cl-] [carbamylcholine]
intracellular Ca++ concentration change [4]: detectable increase in the intracellular Ca^++ concentration of the majority of the cells

Compound: Nc1ncnc2c1ncn2[C@@H]1O[C@@H]2COP(=O)(O)O[C@H]2[C@H]1O [cAMP, cyclic AMP]
current in inside-out patch [5]: a current was elicited

specific binding versus membranes of pUC19-transfected cells (human mGluR5a receptor [6]): significantly higher
Compound: [^3H]-glutamate

Compound: NC(CCCP(=O)(O)O)C(=O)O (centres unmarked) [AP5, 2-amino-5-phosphonopentanoate]
inhibition of glutamate-, quisqualate- or trans-ACPD-stimulated fluorescence increases (human mGluR5a receptor [1]): Neither of these compounds (AP3, AP5 or CNQX) inhibited
